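Results reflect a 48-hour exposure of cells in 96-well plates to compound at five concentrations. GI50 = concentration required for 50% inhibition of growth. TGI marks complete inhibition of growth.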
Legend:
Experiment in all cases: DTP human tumour cell line panel, 48 h
786-0 renal = tested on: 786-0 renal
A498 renal = tested on: A498 renal
A549 NSCLC = tested on: A549 NSCLC
ACHN renal = tested on: ACHN renal
BT-549 breast = tested on: BT-549 breast
CAKI-1 renal = tested on: CAKI-1 renal
CCRF-CEM leukemia = tested on: CCRF-CEM leukemia
COLO 205 colon = tested on: COLO 205 colon
DU-145 prostate = tested on: DU-145 prostate
EKVX NSCLC = tested on: EKVX NSCLC
HCC-2998 colon = tested on: HCC-2998 colon
HCT-116 colon = tested on: HCT-116 colon
HCT-15 colon = tested on: HCT-15 colon
HL-60(TB) leukemia = tested on: HL-60(TB) leukemia
HOP-62 NSCLC = tested on: HOP-62 NSCLC
HOP-92 NSCLC = tested on: HOP-92 NSCLC
HS 578T breast = tested on: HS 578T breast
HT29 colon = tested on: HT29 colon
IGROV1 ovarian = tested on: IGROV1 ovarian
K-562 leukemia = tested on: K-562 leukemia
KM12 colon = tested on: KM12 colon
LOX IMVI melanoma = tested on: LOX IMVI melanoma
M14 melanoma = tested on: M14 melanoma
MALME-3M melanoma = tested on: MALME-3M melanoma
MCF7 breast = tested on: MCF7 breast
MDA-MB-231 breast = tested on: MDA-MB-231 breast
MDA-MB-435 = tested on: MDA-MB-435
MOLT-4 leukemia = tested on: MOLT-4 leukemia
NCI-H226 lung = tested on: NCI-H226 lung
NCI-H23 lung = tested on: NCI-H23 lung
NCI-H460 lung = tested on: NCI-H460 lung
NCI-H522 lung = tested on: NCI-H522 lung
NCI/ADR-RES ovarian = tested on: NCI/ADR-RES ovarian
OVCAR-3 ovarian = tested on: OVCAR-3 ovarian
OVCAR-4 ovarian = tested on: OVCAR-4 ovarian
OVCAR-5 ovarian = tested on: OVCAR-5 ovarian
OVCAR-8 ovarian = tested on: OVCAR-8 ovarian
PC-3 prostate = tested on: PC-3 prostate
RPMI-8226 leukemia = tested on: RPMI-8226 leukemia
RXF 393 renal = tested on: RXF 393 renal
SF-268 CNS = tested on: SF-268 CNS
SF-295 CNS = tested on: SF-295 CNS
SF-539 CNS = tested on: SF-539 CNS
SK-MEL-2 melanoma = tested on: SK-MEL-2 melanoma
SK-MEL-28 melanoma = tested on: SK-MEL-28 melanoma
SK-MEL-5 melanoma = tested on: SK-MEL-5 melanoma
SK-OV-3 ovarian = tested on: SK-OV-3 ovarian
SN12C renal = tested on: SN12C renal
SNB-19 CNS = tested on: SNB-19 CNS
SNB-75 CNS = tested on: SNB-75 CNS
SR leukemia = tested on: SR leukemia
SW-620 colon = tested on: SW-620 colon
T-47D breast = tested on: T-47D breast
TK-10 renal = tested on: TK-10 renal
U251 CNS = tested on: U251 CNS
UACC-257 melanoma = tested on: UACC-257 melanoma
UACC-62 melanoma = tested on: UACC-62 melanoma
UO-31 renal = tested on: UO-31 renal

Structure (SMILES): CCC(=O)Nc1cc(Nc2cc(NC3CC3)n3ncc(C#N)c3n2)ccc1C
- GI50 (786-0 renal): 3.46 µM
- TGI (786-0 renal): 43.5 µM
- GI50 (A498 renal): 0.0965 µM
- TGI (A498 renal): 1.16 µM
- GI50 (A549 NSCLC): 1.8 µM
- TGI (A549 NSCLC): 17.3 µM
- GI50 (ACHN renal): 1.67 µM
- TGI (ACHN renal): 15.6 µM
- GI50 (BT-549 breast): 1.11 µM
- TGI (BT-549 breast): 7.45 µM
- GI50 (CAKI-1 renal): 0.43 µM
- TGI (CAKI-1 renal): 3.29 µM
- GI50 (CCRF-CEM leukemia): 1.68 µM
- TGI (CCRF-CEM leukemia): > 100 µM
- GI50 (COLO 205 colon): 0.981 µM
- TGI (COLO 205 colon): 16.3 µM
- GI50 (DU-145 prostate): 3.96 µM
- TGI (DU-145 prostate): 73.3 µM
- GI50 (EKVX NSCLC): 1.16 µM
- TGI (EKVX NSCLC): 45 µM
- GI50 (HCC-2998 colon): 2.46 µM
- TGI (HCC-2998 colon): 18.9 µM
- GI50 (HCT-116 colon): 0.737 µM
- TGI (HCT-116 colon): 12 µM
- GI50 (HCT-15 colon): 1.25 µM
- TGI (HCT-15 colon): 29.6 µM
- GI50 (HL-60(TB) leukemia): 0.6 µM
- TGI (HL-60(TB) leukemia): 12.3 µM
- GI50 (HOP-62 NSCLC): 1.84 µM
- TGI (HOP-62 NSCLC): 25.7 µM
- GI50 (HOP-92 NSCLC): 0.449 µM
- TGI (HOP-92 NSCLC): 6.39 µM
- GI50 (HS 578T breast): 0.216 µM
- TGI (HS 578T breast): 1.03 µM
- GI50 (HT29 colon): 2.18 µM
- TGI (HT29 colon): > 100 µM
- GI50 (IGROV1 ovarian): 1.27 µM
- TGI (IGROV1 ovarian): 6.29 µM
- GI50 (K-562 leukemia): 1.1 µM
- TGI (K-562 leukemia): > 100 µM
- GI50 (KM12 colon): 1.81 µM
- TGI (KM12 colon): 47 µM
- GI50 (LOX IMVI melanoma): 1.57 µM
- TGI (LOX IMVI melanoma): 12.9 µM
- TGI (M14 melanoma): 12.5 µM
- GI50 (MALME-3M melanoma): 2.2 µM
- TGI (MALME-3M melanoma): 69.3 µM
- GI50 (MCF7 breast): 0.421 µM
- TGI (MCF7 breast): 10.7 µM
- GI50 (MDA-MB-231 breast): 1.63 µM
- TGI (MDA-MB-231 breast): 23.3 µM
- GI50 (MDA-MB-435): 2.06 µM
- TGI (MDA-MB-435): 30.7 µM
- GI50 (MOLT-4 leukemia): 3.93 µM
- TGI (MOLT-4 leukemia): 52.2 µM
- GI50 (NCI-H226 lung): 1.51 µM
- TGI (NCI-H226 lung): 16.6 µM
- GI50 (NCI-H23 lung): 1.12 µM
- TGI (NCI-H23 lung): 14.9 µM
- GI50 (NCI-H460 lung): 0.772 µM
- TGI (NCI-H460 lung): 12.3 µM
- GI50 (NCI-H522 lung): 2.48 µM
- TGI (NCI-H522 lung): 27.1 µM
- GI50 (NCI/ADR-RES ovarian): 2.99 µM
- TGI (NCI/ADR-RES ovarian): 30.3 µM
- GI50 (OVCAR-3 ovarian): 1.1 µM
- TGI (OVCAR-3 ovarian): 14.6 µM
- GI50 (OVCAR-4 ovarian): 1.66 µM
- TGI (OVCAR-4 ovarian): 67.1 µM
- GI50 (OVCAR-5 ovarian): 0.955 µM
- TGI (OVCAR-5 ovarian): 33 µM
- GI50 (OVCAR-8 ovarian): 3.63 µM
- TGI (OVCAR-8 ovarian): > 100 µM
- GI50 (PC-3 prostate): 1.73 µM
- TGI (PC-3 prostate): 23.3 µM
- GI50 (RPMI-8226 leukemia): 1.77 µM
- TGI (RPMI-8226 leukemia): 17.6 µM
- GI50 (RXF 393 renal): 3.29 µM
- TGI (RXF 393 renal): 15.5 µM
- GI50 (SF-268 CNS): 2.32 µM
- TGI (SF-268 CNS): 57.4 µM
- GI50 (SF-295 CNS): 2.34 µM
- TGI (SF-295 CNS): 14.8 µM
- GI50 (SF-539 CNS): 1.81 µM
- TGI (SF-539 CNS): 46.9 µM
- GI50 (SK-MEL-2 melanoma): 2.65 µM
- TGI (SK-MEL-2 melanoma): 18.6 µM
- GI50 (SK-MEL-28 melanoma): 4.02 µM
- TGI (SK-MEL-28 melanoma): > 100 µM
- GI50 (SK-MEL-5 melanoma): 1.6 µM
- TGI (SK-MEL-5 melanoma): 9.15 µM
- GI50 (SK-OV-3 ovarian): 1.6 µM
- TGI (SK-OV-3 ovarian): 9.04 µM
- GI50 (SN12C renal): 3.16 µM
- TGI (SN12C renal): > 100 µM
- GI50 (SNB-19 CNS): 1.77 µM
- TGI (SNB-19 CNS): > 100 µM
- GI50 (SNB-75 CNS): 0.0521 µM
- TGI (SNB-75 CNS): 0.974 µM
- GI50 (SR leukemia): 1.78 µM
- TGI (SR leukemia): > 100 µM
- GI50 (SW-620 colon): 1.28 µM
- TGI (SW-620 colon): 19 µM
- GI50 (T-47D breast): 1.05 µM
- TGI (T-47D breast): 9.87 µM
- GI50 (TK-10 renal): 0.987 µM
- TGI (TK-10 renal): 7.52 µM
- GI50 (U251 CNS): 0.94 µM
- TGI (U251 CNS): > 100 µM
- GI50 (UACC-257 melanoma): 1.77 µM
- TGI (UACC-257 melanoma): 53.6 µM
- GI50 (UACC-62 melanoma): 1.22 µM
- TGI (UACC-62 melanoma): 12.1 µM
- GI50 (UO-31 renal): 2.09 µM
- TGI (UO-31 renal): 13.7 µM
